In the supplement of paper PMC10307832:

Columns and labels:
Test in all cases: relative viability (nuclei count vs DMSO), 5 days (fraction); higher = more cells survive
Wnt-C59 + Pemetrexed = compound: CC1=NC=CC(=C1)C2=CC=C(C=C2)CC(=O)NC3=CC=C(C=C3)C4=CN=CC=C4 [Wnt-C59] + Nc1nc2[nH]cc(CCc3ccc(C(=O)N[C@@H](CCC(=O)O)C(=O)O)cc3)c2c(=O)[nH]1 [Pemetrexed] (partner 0.2 µM)
Procedure, shortened: (§1)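 Nuclei were stained with Hoechst during a one-step fixation (final 0.05% Triton X-100, 1% formaldehyde, 1 ug/ml Hoechst) carried out 5 days after dosing, then counted on 4× images. The cells, lung cancer lines in 1536-well plates, had been dosed by pin tool the day after seeding with one drug alone or a fixed anchor-drug dose plus five library-drug doses (not always all listed) in √10 steps. Relative viability is the nuclei count in treated wells divided by that in vehicle wells, and each value is the median of duplicate plates.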

Wnt-C59 + OSI-027 = compound: CC1=NC=CC(=C1)C2=CC=C(C=C2)CC(=O)NC3=CC=C(C=C3)C4=CN=CC=C4 [Wnt-C59] + COc1cccc2cc(-c3nc([C@H]4CC[C@H](C(=O)O)CC4)n4ncnc(N)c34)[nH]c12 [OSI-027] (partner 0.5 µM)
Procedure, shortened: as §1

Wnt-C59 + Olaparib = compound: CC1=NC=CC(=C1)C2=CC=C(C=C2)CC(=O)NC3=CC=C(C=C3)C4=CN=CC=C4 [Wnt-C59] + O=C(c1cc(Cc2n[nH]c(=O)c3ccccc23)ccc1F)N1CCN(C(=O)C2CC2)CC1 [Olaparib] (partner 8 µM)
Procedure, shortened: as §1

Wnt-C59 + Vorinostat = compound: CC1=NC=CC(=C1)C2=CC=C(C=C2)CC(=O)NC3=CC=C(C=C3)C4=CN=CC=C4 [Wnt-C59] + O=C(CCCCCCC(=O)Nc1ccccc1)NO [Vorinostat] (partner 1 µM)
Procedure, shortened: as §1

Cell Line	relative viability (Wnt-C59 + Pemetrexed; first compound 0.001 µM)	relative viability (Wnt-C59 + Pemetrexed; first compound 0.01 µM)	relative viability (Wnt-C59 + Pemetrexed; first compound 0.03162 µM)	relative viability (Wnt-C59 + Pemetrexed; first compound 0.1 µM)	relative viability (Wnt-C59 + OSI-027; first compound 0.001 µM)	relative viability (Wnt-C59 + OSI-027; first compound 0.01 µM)	relative viability (Wnt-C59 + OSI-027; first compound 0.03162 µM)	relative viability (Wnt-C59 + OSI-027; first compound 0.1 µM)	relative viability (Wnt-C59 + Olaparib; first compound 0.001 µM)	relative viability (Wnt-C59 + Olaparib; first compound 0.01 µM)	relative viability (Wnt-C59 + Olaparib; first compound 0.03162 µM)	relative viability (Wnt-C59 + Olaparib; first compound 0.1 µM)	relative viability (Wnt-C59 + Vorinostat; first compound 0.001 µM)	relative viability (Wnt-C59 + Vorinostat; first compound 0.01 µM)	relative viability (Wnt-C59 + Vorinostat; first compound 0.03162 µM)	relative viability (Wnt-C59 + Vorinostat; first compound 0.1 µM)
NCI-H1355	1.04	1.03	1.03	0.96	0.446	0.302	0.366	0.417	0.726	0.756	0.717	0.716	0.639	0.529	0.601	0.596
SK-MES-1	0.92	0.982	0.986	0.827	0.673	0.54	0.666	0.567	0.662	0.684	0.863	0.615	1.12	1.11	1.21	1.03
NCI-H1793	0.813	0.693	0.914	0.953	0.189	–	0.287	0.266	0.779	0.734	1.01	0.841	0.626	0.548	0.81	0.74
COR-L23	0.221	0.194	0.206	0.2	0.763	0.701	0.954	0.735	0.295	0.309	0.362	0.32	0.457	0.452	0.624	0.454
HCC-15	0.228	0.235	0.215	0.225	0.641	0.718	0.647	0.752	0.745	0.73	0.738	0.667	0.851	0.817	1.05	0.892
NCI-H2023	0.238	0.258	0.221	0.24	0.475	0.316	0.461	0.376	0.498	0.517	0.555	0.411	0.757	0.499	0.742	0.487
HARA	0.206	0.206	0.26	0.237	0.478	0.337	0.64	0.518	0.826	0.784	0.866	0.856	0.729	0.533	0.511	0.481
EKVX	0.376	–	0.367	0.361	0.728	0.574	0.648	0.565	0.837	–	0.906	0.72	0.805	0.585	0.574	0.557
HCC-78	0.913	0.883	0.907	0.934	0.389	0.364	0.366	0.411	0.883	0.852	0.855	0.633	0.439	0.407	0.476	0.484
NCI-H1395	0.968	0.861	0.94	0.885	0.61	0.661	0.717	0.727	0.497	0.444	0.411	0.424	0.724	0.675	0.564	1.1
BEN	0.707	0.738	0.754	0.846	0.256	0.309	0.306	0.305	1.32	1.04	1.27	0.94	0.581	0.523	0.675	0.579
LCLC-103H	0.452	0.467	0.482	0.505	0.458	0.533	0.527	0.498	0.81	0.737	0.699	0.793	0.887	0.743	0.762	0.806
NCI-H1734	0.414	0.389	0.423	0.394	0.622	0.518	0.596	0.3	0.615	0.612	0.672	0.282	0.76	0.822	0.833	0.816
NCI-H596	0.533	0.569	0.483	0.479	0.733	0.499	0.952	0.719	0.7	0.664	0.742	0.745	0.601	0.603	0.59	0.76
SW 1573	0.863	0.848	0.879	0.761	0.684	0.659	0.63	0.639	0.449	0.445	0.551	0.39	0.801	0.673	0.778	0.662
RERF-LC-KJ	0.483	0.497	0.45	0.495	0.599	0.504	0.658	0.56	0.787	0.846	1.12	0.877	0.746	0.671	0.825	0.715
NCI-H1651	0.577	0.618	0.648	0.558	0.767	0.646	0.696	0.709	0.202	0.164	0.203	0.184	0.557	0.6	0.597	0.63
